The source of these data is US7632829B2, “Diazepan derivatives” (Hoffmann-La Roche Inc., priority 2006, dated 2009).

The assay deals with T1, human chemokine receptor 2 isoform B (Homo sapiens, UniProt P41597).
T1 construct: host or cells: CHOK1-CCR2B-A5 (CHO-K1)
T1 sequence (P41597 1-360 isoform P41597-2): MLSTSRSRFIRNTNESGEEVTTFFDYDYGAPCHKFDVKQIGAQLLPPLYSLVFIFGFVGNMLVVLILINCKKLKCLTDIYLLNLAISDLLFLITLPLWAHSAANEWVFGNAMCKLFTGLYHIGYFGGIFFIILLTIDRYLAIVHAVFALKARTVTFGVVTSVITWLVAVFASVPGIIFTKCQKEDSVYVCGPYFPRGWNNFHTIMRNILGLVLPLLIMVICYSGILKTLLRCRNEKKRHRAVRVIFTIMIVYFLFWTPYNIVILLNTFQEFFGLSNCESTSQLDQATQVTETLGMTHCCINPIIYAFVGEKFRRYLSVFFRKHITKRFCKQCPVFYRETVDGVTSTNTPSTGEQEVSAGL
Description: Calcium mobilization assay (FLIPR, CHOK1-CCR2B-A5 cells, 20 nM MCP-1). Type of assay: cell-based. To be noted: Ca mobilisation assay, CCR2, antagonist activity vs 20 nM MCP-1. The gist of the method: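 Antagonism read as IC50 against 20 nM MCP-1-evoked calcium rise (peak minus baseline Fluo-4 signal, FLIPR) in CCR2B-overexpressing CHO-K1 cells. Compounds were preincubated 20-30 min at 30 °C, with agonist activity recorded for 80 s on addition.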

For the molecule `CN(CCCN1CCN(C(=O)/C=C/c2ccc(Cl)c(Cl)c2)CCC1=O)C1CCOCC1` [Example 78, 1-[(E)-3-(3,4-Dichloro-phenyl)-acryloyl]-4-{3-[methyl-(tetrahydro-pyran-4-yl)-amino]-propyl}-[1,4]diazepan-5-one], the 50% inhibitory concentration (IC50) was 444 nM.
On to `C[C@@H]1C[C@H](O)CN(C[C@H](O)CN2CCN(C(=O)/C=C/c3ccc(Cl)c(Cl)c3)CCC2=O)C1` (mixture of isomers) [Example 335, 1-[(E)-3-(3,4-Dichloro-phenyl)-acryloyl]-4-[(S)-2-hydroxy-3-(cis-3-hydroxy-5-methyl-piperidin-1-yl)-propyl]-[1,4]diazepan-5-one], for which the IC50 was 13 nM.
With `CC1CCN(CCCN2CCN(C(=O)C=Cc3ccc(Cl)c(F)c3)CCC2=O)CC1O` (single isomer, unassigned) [Example 491, 1-[(E)-3-(4-Chloro-3-fluoro-phenyl)-acryloyl]-4-[3-((+,cis)-3-hydroxy-4-methyl-piperidin-1-yl)-propyl]-[1,4]diazepan-5-one], the IC50 was 216 nM.
In the case of `CC(C)CN1CCN(CC(O)CN2CCN(C(=O)C=Cc3ccc(Cl)c(Cl)c3)CCC2=O)CC1` (racemic) [Example 325] it was 741 nM.
Then `O=C(/C=C/c1cccc(Cl)c1)N1CCC(=O)N(CCN2CCC(c3c[nH]c4cc(F)ccc34)CC2)CC1` [Example 27, 1-[(E)-3-(3-Chloro-phenyl)-acryloyl]-4-{3-[4-(6-fluoro-1H-indol-3-yl)-piperidin-1-yl]-ethyl}-[1,4]diazepan-5-one], with 248 nM; and `O=C(/C=C/c1ccc(Cl)c(Cl)c1)N1CCC(=O)N(CCCN2CCC(O)(c3ccncc3)CC2)CC1` [Example 53, 1-[(E)-3-(3,4-Dichloro-phenyl)-acryloyl]-4-[3-(4-hydroxy-3,4,5,6-tetrahydro-2H-[4,4′]bipyridinyl-1-yl)-propyl]-[1,4]diazepan-5-one], with 441 nM; and `CC1(C)CCN(C[C@H](O)CN2CCN(C(=O)/C=C/c3ccc(Cl)c(Cl)c3)CCC2=O)CC1O` (stereo partly drawn) [Example 334, 1-[(E)-3-(3,4-Dichloro-phenyl)-acryloyl]-4-[(S)-2-hydroxy-3-(3-hydroxy-4,4-dimethyl-piperidin-1-yl)-propyl]-[1,4]diazepan-5-one], with 4 nM.
On to `O=C(/C=C/c1ccc(Cl)c(F)c1)N1CCC(=O)N(CCCCN2CC(O)CCC2CO)CC1` (racemic) [Example 414], for which the IC50 stood at 65 nM.
Then `O=C(/C=C/c1ccc(Cl)c(Cl)c1)N1CCC(=O)N(CCCCN2CCC[C@H](O)[C@@H]2CO)CC1` (racemic) [Example 480], with 53 nM; and `CC1CN(CCCN2CCN(C(=O)/C=C/c3ccc(Cl)c(Cl)c3)CCC2=O)CCC1O` (racemic) [Example 243], with 133 nM.
In the case of `COC(=O)N(C)C1CCN(CCCCN2CCN(C(=O)/C=C/c3ccc(Cl)c(Cl)c3)CCC2=O)CC1` [Example 442] it was 85 nM.
Then `O=C(/C=C/c1ccc(Cl)c(Cl)c1)N1CCC(=O)N(CCCCN2CC[C@@H](CO)[C@H](O)C2)CC1` (racemic) [Example 471], with 43 nM; and `CN(CCCCN1CCN(C(=O)/C=C/c2ccc(Cl)c(Cl)c2)CCC1=O)C1CCOCC1` [Example 10, 1-[(E)-3-(3,4-Dichloro-phenyl)-acryloyl]-4-{4-[methyl-(tetrahydro-pyran-4-yl)-amino]-butyl}-[1,4]diazepan-5-one], with 73 nM.
In the case of `O=C(/C=C/c1ccc(Cl)c(Cl)c1)N1CCC(=O)N(CCNC2CCOCC2)CC1` [Example 103, 1-[(E)-3-(3,4-Dichloro-phenyl)-acryloyl]-4-[3-(tetrahydro-pyran-4-ylamino)-ethyl]-[1,4]diazepan-5-one], the 50% inhibitory concentration (IC50) stood at 388 nM.
For the molecule `CC1CCN(CCCN2CCN(C(=O)C=Cc3ccc(Cl)c(Cl)c3)CCC2=O)CC1O` (single isomer, unassigned) [Example 259, 1-[(E)-3-(3,4-Dichloro-phenyl)-acryloyl]-4-[3-((+, cis)-3-hydroxy-4-methyl-piperidin-1-yl)-propyl]-[1,4]diazepan-5-one], the IC50 was 57 nM.
In the case of `O=C(C=Cc1ccc(Cl)c(Cl)c1)N1CCC(=O)N(CCNC2CC3CCC2C3)CC1` (racemic) [Example 110, (+/−)-4-[3-(Bicyclo[2.2.1]hept-2-ylamino)ethyl]-1-[(E)-3-(3,4-dichloro-phenyl)-acryloyl]-[1,4]diazepan-5-one], the IC50 was 641 nM.
Consider `O=C(/C=C/c1cccc(Cl)c1)N1CCC(=O)N(CCN2CCCC2)CC1` [Example 1, 1-[(E)-3-(3-Chloro-phenyl)-acryloyl]-4-(2-pyrrolidin-1-yl-ethyl)-[1,4]diazepan-5-one], for which the half-maximal inhibitory concentration (IC50) was 681 nM.
As to `CC1CCN(CC(O)CCN2CCN(C(=O)/C=C/c3ccc(Cl)c(Cl)c3)CCC2=O)CC1O` (racemic) [Example 359], the IC50 turned out to be 807 nM.
In the case of `COC[C@H]1CCN(C[C@H](O)CN2CCN(C(=O)/C=C/c3ccc(Cl)c(Cl)c3)CCC2=O)C[C@H]1O` (mixture of isomers) [Example 329, 1-[(E)-3-(3,4-Dichloro-phenyl)-acryloyl]-4-[(S)-2-hydroxy-3-(cis-3-hydroxy-4-methoxymethyl-piperidin-1-yl)-propyl]-[1,4]diazepan-5-one] it was 137 nM; in that of `O=C(/C=C/c1ccc(F)c(Cl)c1)N1CCC(=O)N(CCCCN2CCC(CO)CC2)CC1` [Example 386], 380 nM; in that of `O=C(/C=C/c1ccc(Cl)c(Cl)c1)N1CCC(=O)N(CCCN2CCC(c3ccccc3)CC2)CC1` [Example 45, 1-[(E)-3-(3,4-Dichloro-phenyl)-acryloyl]-4-[3-(4-phenyl-piperidin-1-yl)-propyl]-[1,4]diazepan-5-one], 13 nM.
Then `COCC1C(O)CCCN1CCCCN1CCN(C(=O)/C=C/c2ccc(Cl)c(Cl)c2)CCC1=O` (racemic) [Example 486], with 205 nM; and `CC1(O)CCCN(CCCN2CCN(C(=O)/C=C/c3ccc(F)c(Cl)c3)CCC2=O)C1` (racemic) [Example 205], with 325 nM; and `CC(C)CN1CCN(CCCCN2CCN(C(=O)/C=C/c3ccc(Cl)c(Cl)c3)CCC2=O)CC1` [Example 465], with 376 nM.
In the case of `O=C(/C=C/c1ccc(Cl)c(Cl)c1)N1CCC(=O)N(CCCN2CCC(N3CCNC3=O)CC2)CC1` [Example 56, 1-[(E)-3-(3,4-Dichloro-phenyl)-acryloyl]-4-{3-[4-(2-oxo-imidazolidin-1-yl)-piperidin-1-yl]-propyl}-[1,4]diazepan-5-one] it was 1080 nM.
Consider `O=C(/C=C/c1ccc(Cl)c(Cl)c1)N1CCC(=O)N(CCCCN2CCC(O)CC2)CC1` [Example 424], for which the IC50 was found to be 119 nM.
In the case of “4-[3-(Cyclohexy-methyl-amino)-ethyl]-1-[(E)-3-(3,4-dichloro-phenyl)-acryloyl]-[1,4]diazepan-5-one [Example 111]” it was 335 nM; in that of `CC1(CO)CCN(CCCCN2CCN(C(=O)C=Cc3ccc(Cl)c(Cl)c3)CCC2=O)CC1O` (centres unmarked) [Example 473], 51 nM; in that of `COC[C@H]1CCN(CCCN2CCN(C(=O)/C=C/c3ccc(F)c(Cl)c3)CCC2=O)C[C@H]1O` (racemic) [Example 216], 726 nM.
Then `CC1CCCN(CCCN2CCN(C(=O)/C=C/c3ccc(Cl)c(Cl)c3)CCC2=O)C1` (racemic) [Example 235], with 112 nM.
`COC(=O)NC1CCN(CC(O)CCN2CCN(C(=O)/C=C/c3ccc(Cl)c(Cl)c3)CCC2=O)CC1` (racemic) [Example 364]: the IC50 came to 531 nM.
On to `O=C(/C=C/c1ccc(F)c(F)c1)N1CCC(=O)N(CCCN2CCC3(CC3)C(O)C2)CC1` (centres unmarked) [Example 495], for which the IC50 was found to be 19 nM.
Then `O=C(/C=C/c1ccc(Cl)c(Cl)c1)N1CCC(=O)N(C[C@@H](O)CN2CCC3(CC3)C(O)C2)CC1` (stereo partly drawn) [Example 327, 1-[(E)-3-(3,4-Dichloro-phenyl)-acryloyl]-4-[(S)-2-hydroxy-3-((−)-4-hydroxy-6-aza-spiro[2.5]oct-6-yl)-propyl]-[1,4]diazepan-5-one], with 2 nM.
Then `O=C(/C=C/c1ccc(Cl)c(Cl)c1)N1CCC(=O)N(CCN2CCC(O)(c3ccccc3)CC2)CC1` [Example 96, 1-[(E)-3-(3,4-Dichloro-phenyl)-acryloyl]-4-[3-(4-hydroxy-4-phenyl-piperidin-1-yl)-ethyl]-[1,4]diazepan-5-one], with 1140 nM; and `CC1CCN(CCCCN2CCN(C(=O)/C=C/c3ccc(Cl)c(Cl)c3)CCC2=O)CC1O` (racemic) [Example 448], with 181 nM.
In the case of `COCC1CCN(CCCCN2CCN(C(=O)/C=C/c3ccc(Cl)c(Cl)c3)CCC2=O)CC1` [Example 444, 1-[(E)-3-(3,4-Dichloro-phenyl)-acryloyl]-4-[4-(4-methoxymethyl-3-piperidin-1-yl)-butyl]-[1,4]diazepan-5-one] it was 32 nM.
`CC1CN(CCCCN2CCN(C(=O)/C=C/c3ccc(F)c(Cl)c3)CCC2=O)CCC1O` (racemic) [Example 400]: the concentration for half-maximal inhibition (IC50) is 264 nM.
Then `O=C(/C=C/c1ccc(Cl)c(Cl)c1)N1CCC(=O)N(CCCN2CCC(O)(c3ccccn3)CC2)CC1` [Example 69, 1-[(E)-3-(3,4-Dichloro-phenyl)-acryloyl]-4-[3-(4′-hydroxy-3′,4′,5′,6′-tetrahydro-2′H-[2,4′]bipyridinyl-1′-yl)-propyl]-[1,4]diazepan-5-one], with 185 nM.
